Experimental data taken from publication PMC4496498, “Radiosynthesis, In Vivo Biological Evaluation, and Imaging of Brain Lesions with [^123I]-CLINME, a New SPECT Tracer for the Translocator Protein” (Disease Markers, 2015).
Several values for one entry are separate records, joined by “and”; a condition that tells them apart may be missing. Equal values may be shown once.

Legend:
[1] = In vivo biodistribution of [^123I]-CLINME; design: species or system Sprague-Dawley (SD) rats; conditions: for Biodistribution, Adrenals / Biodistribution, Blood / Biodistribution, Heart / Biodistribution, Kidney / Biodistribution, Liver / Biodistribution, Lungs / Biodistribution, Olfactory bulbs / Biodistribution, Spleen / Biodistribution, Thyroid / Biodistribution, Brain: SD male rats, i.v.; for Biodistribution, Brain: remainder of the brain
Procedure: No carrier added [^123I]-CLINME (0.7 MBq, 10 pmoles) dissolved in 0.9% saline (0.1 mL) was administered to 8–10-week-old male Sprague-Dawley (SD) rats (n = 4–6) via tail vein injection in a volume of 0.1 mL. At 5, 15, and 30 min and 1, 3, and 6 h after injection (p.i.) of the [^123I]-CLINME, the rats were sacrificed by CO2 administration followed by cervical fracture. […] Samples of organs and tissues were weighed and the radioactivity was measured using an automated γ-counter. The percent of injected dose (%ID) was calculated by comparison to a diluted standard solution derived from the initial injected sample. Radioactivity concentrations were expressed as percent of injected dose per gram of wet tissue (% ID/g).

[2] = Metabolite studies (radio-TLC of tissue and plasma extracts); assay type: in vivo, SD rats; conditions: rats
Procedure: Groups of male SD rats were injected with [^123I]-CLINME (7.4 MBq in 0.1 mL of 0.9% saline) and sacrificed at 15, 60, and 180 min p.i. Adrenals, kidney, heart, and brain were quickly excised.
Tissue fractions (200 mg) were treated with acetonitrile (2 mL) and homogenised, and the mixture was centrifuged at 2,000 rpm. The supernatant was removed and the pellet was treated for a second time, as above and the combined supernatants concentrated to 50 μL. Plasma (0.2 mL) separated from blood was extracted with acetonitrile and concentrated. The concentrated extracts were applied onto silica gel C18 plates with a preconcentration zone (Merck, Darmstadt, Germany) and developed with ethyl acetate. The radioactivity distribution was measured using a static radiochromatogram analyser (Berthold Co.).

TSPO = TSPO (Rattus norvegicus, UniProt P16257); experiment: SPECT imaging of unilateral excitotoxic (AMPA) striatum lesion; assay type: in vivo, SD rats; design: from tissue; host or cells: male Sprague-Dawley rats: peripheral organs and brain in vivo; AMPA-lesioned striatum; brain sections; conditions: AMPA lesion rat model
Procedure: Lesioning was performed by stereotaxically injecting 7.5 nmol α-amino-3-hydroxy-5-methylisoxazole-4-propionic acid (AMPA) unilaterally into the striatum. Male SD rats (317 ± 56 g) were anaesthetised with inhaled isoflurane in O2 (5% induction, ~2% maintenance thereafter) and positioned in a stereotaxic frame (Stoelting Co., USA). A 1.5 cm incision was made in the scalp to reveal the skull surface and a burr hole was drilled over the injection site. […] Following the injection, the needle was left in situ for a further 5 min to allow the fluid to disperse. After the needle was withdrawn, the incision was sutured and cleansed. Animals were given a week to recover prior to imaging. Analgesia was provided by subcutaneous administration of 0.05 mg/Kg buprenorphine.
Two hours prior to [^123I]-CLINME administration, thyroid blocking was performed with an intraperitoneal injection of 2 mg/Kg potassium iodide. [^123I]-CLINME (74–148 MBq in 0.1 mL of 0.9% saline, S.A. > 80 GBq/μmol) was injected via the tail vein. […]
SPECT volumes were reconstructed with an Ordered Subset Expectation Maximisation iterative reconstruction algorithm using 3 iterations and 8 subsets. […] At each of the time points p.i., the ratio of the mean activity in the lesion VOI compared to the contralateral control VOI was determined. […]

## CCN(C)C(=O)Cc1c(-c2ccc([123I])cc2)nc2ccc(Cl)cn12 [[^123I]-CLINME]
[1]; 5 min p.i.
  Biodistribution, Adrenals: 2.89 ± 0.48 %ID/g
  Biodistribution, Blood: 0.18 ± 0.02 %ID/g
  Biodistribution, Heart: 3.28 ± 0.30 %ID/g
  Biodistribution, Kidney: 1.82 ± 0.20 %ID/g
  Biodistribution, Liver: 0.70 ± 0.10 %ID/g
  Biodistribution, Lungs: 7.88 ± 0.62 %ID/g
  Biodistribution, Olfactory bulbs: 0.38 ± 0.03 %ID/g
  Biodistribution, Spleen: 2.00 ± 0.55 %ID/g
  Biodistribution, Thyroid: 4.62 ± 2.17 %ID/g
  Biodistribution, Brain: 0.20 ± 0.02 %ID/g
[1]; 15 min p.i.
  Biodistribution, Adrenals: 4.71 ± 0.26 %ID/g
  Biodistribution, Blood: 0.09 ± 0.01 %ID/g
  Biodistribution, Heart: 3.53 ± 0.23 %ID/g
  Biodistribution, Kidney: 1.75 ± 0.07 %ID/g
  Biodistribution, Liver: 0.68 ± 0.07 %ID/g
  Biodistribution, Lungs: 3.53 ± 0.44 %ID/g
  Biodistribution, Olfactory bulbs: 0.28 ± 0.04 %ID/g
  Biodistribution, Spleen: 2.65 ± 0.40 %ID/g
  Biodistribution, Thyroid: 5.62 ± 1.24 %ID/g
  Biodistribution, Brain: 0.10 ± 0.01 %ID/g
[1]; 30 min p.i.
  Biodistribution, Adrenals: 7.55 ± 1.38 %ID/g
  Biodistribution, Blood: 0.08 ± 0.01 %ID/g
  Biodistribution, Heart: 3.32 ± 0.31 %ID/g
  Biodistribution, Kidney: 1.78 ± 0.18 %ID/g
  Biodistribution, Liver: 0.51 ± 0.07 %ID/g
  Biodistribution, Lungs: 2.45 ± 0.30 %ID/g
  Biodistribution, Olfactory bulbs: 0.34 ± 0.01 %ID/g
  Biodistribution, Spleen: 2.21 ± 0.15 %ID/g
  Biodistribution, Thyroid: 7.37 ± 2.14 %ID/g
  Biodistribution, Brain: 0.08 ± 0.00 %ID/g
[1]; 1 hour p.i.
  Biodistribution, Adrenals: 6.77 ± 0.54 %ID/g
  Biodistribution, Blood: 0.06 ± 0.00 %ID/g
  Biodistribution, Kidney: 1.16 ± 0.18 %ID/g
  Biodistribution, Liver: 0.42 ± 0.07 %ID/g
  Biodistribution, Lungs: 1.68 ± 0.10 %ID/g
  Biodistribution, Olfactory bulbs: 0.26 ± 0.05 %ID/g
  Biodistribution, Spleen: 1.76 ± 0.12 %ID/g
  Biodistribution, Thyroid: 6.46 ± 2.26 %ID/g
  Biodistribution, Brain: 0.06 ± 0.01 %ID/g
[1]; 3 hours p.i.
  Biodistribution, Adrenals: 6.65 ± 0.56 %ID/g
  Biodistribution, Blood: 0.04 ± 0.00 %ID/g
  Biodistribution, Heart: 1.28 ± 0.13 %ID/g
  Biodistribution, Kidney: 0.70 ± 0.05 %ID/g
  Biodistribution, Liver: 0.23 ± 0.01 %ID/g
  Biodistribution, Lungs: 0.95 ± 0.12 %ID/g
  Biodistribution, Olfactory bulbs: 0.25 ± 0.01 %ID/g
  Biodistribution, Spleen: 1.02 ± 0.14 %ID/g
  Biodistribution, Thyroid: 3.41 ± 1.10 %ID/g
  Biodistribution, Brain: 0.03 ± 0.00 %ID/g
[1]; 6 hours p.i.
  Biodistribution, Adrenals: 8.34 ± 0.71 %ID/g
  Biodistribution, Blood: 0.03 ± 0.00 %ID/g
  Biodistribution, Heart: 0.72 ± 0.14 %ID/g
  Biodistribution, Kidney: 0.51 ± 0.09 %ID/g
  Biodistribution, Liver: 0.21 ± 0.05 %ID/g
  Biodistribution, Lungs: 0.68 ± 0.08 %ID/g
  Biodistribution, Olfactory bulbs: 0.17 ± 0.05 %ID/g
  Biodistribution, Spleen: 0.67 ± 0.09 %ID/g
  Biodistribution, Thyroid: 4.11 ± 1.15 %ID/g
  Biodistribution, Brain: 0.02 ± 0.00 %ID/g
[1]; rats
  ratio of uptake olfactory bulbs to blood: 6
[1]; rats, after 30 min to 6 h p.i.
  plateau of activity in the adrenals: ≈ 7.5 % ID/g
[1]; rats, at 5 or 15 min p.i.
  peak activity in heart: 3.5 % ID/g
  peak activity in kidney: 1.8 % ID/g
  peak activity in liver: 0.7 % ID/g
  peak activity in lung: 7.9 % ID/g
  peak activity in spleen: 2.7 % ID/g
[1]; rats, at 5 min
  ratio of uptake olfactory bulbs versus remainder of the brain: 2
[1]; rats, at 3 h, constant till 6 h
  uptake in the thyroid: 4%
[1]; rats, at 6 h
  activity in liver, spleen, kidney, heart, and lung: less than 0.7 % ID/g
  ratio of uptake olfactory bulbs versus remainder of the brain: 8
[1]; rats, increase from 5 min to 1 h
  uptake in the thyroid: 4–7%
[1]; rats, throughout the time of measurement
  concentration in blood: < 0.18 % ID/g
[2]
  unchanged radiotracer in brain tissue: more than 95%
[2]; 15 min p.i.
  unchanged tracer in extracted activity, plasma: 15%
[2]; 1 h p.i.
  unchanged tracer in extracted activity, plasma: 5%
[2]; 3 h p.i.
  unchanged tracer in extracted activity, plasma: 2%
[2]; constant over the three hours studied
  unchanged [^123I]-CLINME in extractable radioactivity, adrenals, kidney, and heart: more than 95%
TSPO; 60 min p.i.
  mean ratio ± SD (ipsilateral : contralateral) striatum uptake, SPECT: 2.2 and 2.18 ± 0.89
TSPO; 120 min p.i.
  mean ratio ± SD (ipsilateral : contralateral) striatum uptake, SPECT: 1.86 ± 0.51
